Measurements published in publication PMC12032302, “A20 attenuates oxidized self-DNA-mediated inflammation in acute kidney injury” (Signal Transduction and Targeted Therapy, 2025).
Entries after “also recorded” stand apart in the source; their conditions may differ. Residues, ends and D or L forms follow the SMILES beside them.

Tests used:
[1] = system: BMDMs; experiment: ox-dsDNA-induced pyroptosis in BMDMs (GSDMD cleavage, IL-1β, IL-18, LDH release); assay type: cell-based, mouse; settings: ox-dsDNA90, 12 h pretreated P-II (0, 5, 10, 20 μM), n = 3, Supplementary Fig. 4f-i
Description: Primary bone marrow-derived macrophages (BMDMs) were isolated from 6- to 8-week-old C57BL/6J male mice. The mice were sacrificed and soaked in 75% alcohol for 1–2 min. The femurs and tibias were removed and immersed in PBS containing 500 U/mL penicillin and […] streptomycin for 3 min. The marrow cavities were repeatedly rinsed with DMEM using a sterile 1 mL syringe. The cell suspension was collected and centrifuged at 300 × g for 10 min, and the supernatant was discarded. The cell pellet was resuspended in 5 mL red cell lysis buffer (Bio Sharp, Cat#BL503A) on ice for 5 min, followed by centrifugation, and the supernatant was removed. The cells were then resuspended in DMEM complete culture medium supplemented with 10% FBS and 30% L929 cell-conditioned medium as an induction factor.[51] Half of the medium was changed every other day for 5–7 days. The suspended cells were removed, and the adherent BMDMs were digested with trypsin and plated on a six-well plate at a density of 1 × 10^6 cells/well. […]
To measure the levels of CXCL10, IFN-β, IL-1β, and IL-18, mouse serum or cell culture medium was collected and measured by ELISA (NeoBioscience, China) according to the manufacturer’s instructions.
To measure the release of LDH, cell culture medium was collected and measured by CytoTox96@Non-Radio cytotoxicity Assay (Promega, REF#G1781) according to the manufacturer’s instructions.

[2] = system: AKI mice; experiment: tubular injury / renal injury of AKI mice (HE histology); assay type: in vivo, mouse; settings: Cis-treated mice; A20-derived peptide 15 mg/kg i.p., pretreated; n = 9
Description: LPS (Sigma, Cat#L2630) was dissolved in PBS to 2.5 mg/mL for one-time intraperitoneal 25 mg/kg injection; deoxyribonuclease I (DNase I, Sigma, Cat#SLBV1446) was dissolved in PBS to 1 mg/mL and injected intraperitoneally at a dose of 10 mg/kg at 4 h before cisplatin or AA I injection and every 24 h after injection. Disulfiram (MedChemExpress, CAS:97-77-8) was diluted in corn oil to 12.5 mg/mL and injected 50 mg/kg intraperitoneally every 24 h after cisplatin or AA I administration. Cu(II) (Sigma, Cat#344419) was dissolved in PBS to 30 µg/mL and administered intraperitoneally 6 h before disulfiram at a dose of 0.15 mg/kg; TNF-α (Peprotech, Cat#315-01 A) was dissolved in PBS to 10 µg/mL and injected at 100 µg/kg once through the caudal vein 24 h before cisplatin injection. […] MCC950 (MedChem Express, CAS:256373-96-3) was dissolved in PBS to 5 mg/mL and injected intraperitoneally at a dose of 50 mg/kg 12 h before cisplatin or AA I injection and every 12 h after injection; berberine (APExBIO, Cat#N1368) was dissolved in PBS to 5 mg/mL and 5 mg/kg injected intraperitoneally at 36, 24 and 12 h before cisplatin; […] To supervise the effects of various treatments on survival time and rate, the mice were observed, and survival curves were generated. To investigate the specific mechanisms, whole blood was retrieved from the orbit, serum was separated through centrifugation on the 4th day, and the mice were then sacrificed by cervical dislocation. Mice were randomly assigned in experiments, while there was no blinding during the animal experiments. Renal function was evaluated based on serum creatinine level and histological features. Serum creatinine was determined in the Clinical Pharmacology Lab, Clinical Trial Center, WCH, SCU. The kidneys were extracted from euthanized mice, immediately fixed with 4% paraformaldehyde, and embedded in paraffin. Furthermore, the samples were cut into 5 µm thick sections. These tissue samples were subjected to hematoxylin-eosin (HE) and […] according to standard protocols with HE reagent (Biosharp, Cat#BL702B, BL703B) and Masson reagent (Servicebio, Cat#G1006-100ML). The pathological changes were detected through optical microscopy, and the tubulointerstitial injury score was determined as previously reported.

## CSCC[C@H](NC(=O)[C@H](Cc1ccc(O)cc1)NC(=O)[C@H](CCC(N)=O)NC(=O)[C@H](CS)NC(=O)[C@H](C)NC(=O)[C@H](C)NC(=O)[C@H](Cc1c[nH]cn1)NC(=O)[C@H](CCSC)NC(=O)[C@H](CC(C)C)NC(=O)[C@H](CS)NC(=O)[C@H](CC(N)=O)NC(=O)CNC(=O)[C@H](CC(=O)O)NC(=O)CNC(=O)[C@H](CC(N)=O)NC(=O)[C@@H](NC(=O)[C@H](CCCCN)NC(=O)[C@H](CC(C)C)NC(=O)[C@H](C)NC(=O)[C@@H](NC(=O)[C@H](CC(C)C)NC(=O)[C@@H](N)CCCCN)C(C)C)[C@@H](C)O)C(=O)N[C@@H](Cc1c[nH]c2ccccc12)C(=O)NCC(=O)N[C@H](C(=O)N[C@@H](CCC(N)=O)C(=O)N[C@@H](CC(=O)O)C(=O)N[C@H](C(=O)N[C@@H](CC(=O)O)C(=O)O)[C@@H](C)O)C(C)C [P-II] (H-KLVALKTNGDGNCLMHAACQYMWGVQDTD-OH; N-terminus and C-terminus assumed)
[1]
  inhibition of ox-DNA-induced pyroptosis: significantly alleviates ox-dsDNA-induced pyroptosis; also recorded: inhibiting ox-self-DNA-induced pyroptosis
[2]
  renal injury (in words): alleviated the serum creatinine and renal injury
